Results reported in patent EP0586960B1, “Xanthone derivatives, their preparation and use” (INVERNI DELLA BEFFA S.P.A., priority 1992, dated 1994).
Read-outs that look alike come from different tables or passages of the source.

Experiments:
[1] = system: suckling rats under hypocalcic diet; experiment: Antiosteoporotic activity in suckling rats under hypocalcic diet (femur compacta thickness by microradiography); format: in vivo, Wistar rats; details: 250 mg/kg/os
Description: In vivo, the antiosteoporotic activity of the compound I (R = iPr, R₁ = OiPr) administered by the oral route, was evaluated on suckling rats under hypocalcic diet according to the method, slightly modified, disclosed by Lozupone et al., Bone, 9; 215, 1988). Female Wistar rats were allowed to delivery spontaneously.
The offsprings were pooled, weighed and re-distributed so as to obtain nests similar in weight and number.
The mothers during the suckling period were fed with an hypocalcic diet (Altromin DP 1031) and divided in two groups.
One group was treated orally with compound I (R = iPr, R₁ = OiPr) suspended in Methocel 0.5% at the dose of 250 mg/kg, whereas the second was treated with the vehicle alone (control group). The animals were sacrificed after 10 days from the start of milking.
The femur was taken from each animal and fixed, included in methacrylate and transversally cut. Two sections taken at the distal methaphysis and one from the medial methaphysis were microradiographed so as to measure the thickness of the compacta.

hen osteoclasts = experiment: Bone resorption by hen osteoclast cultures with rat bone particles pre-labelled with tritiated proline; format: cell-based; details: for inhibition at 10 µg/mL / inhibition at 25 µg/mL: Osteoclast, read-out: Inhibition % vs. controls
Description: The activity of the new xanthones has been evaluated in vitro and in vivo. The effect on the bone resorption has been studied in vitro according to Zambonin-Zallone et al. Anatomy Embriology, 165, 405, 1982). The medullary bone, deriving from tibia and femur of hens fed with hypocalcic diet for 7 days was washed with MEM buffer, modified according to Joklik, at 4°C and filtered through a nylon filter with pore diameters of 112 microns. The obtained cell suspension was centrifuged at 1800 rpm for 5 minutes. The surnatant was discarded and the pellet treated with a 0.2% NaCl solution for 30 seconds to eliminate most of the present red blood cells. After restoration of the physiological osmolarity by means of 1.6% NaCl, the sample was centrifuged at 1800 rpm for 5 min. The obtained pellet, suspended again in the culture medium, was layered on 75% foetal calf serum in Joklik MEM for 45 min, so as to obtain a cell suspension enriched in osteoclasts. The fibroblasts were then filtered off by means of two filtrations on 112 µn nylon filters.
The so obtained cells were cultivated in a nucleotide-free medium, in the presence of 3 µg/ml of cytosine-1-D-β-arabinofuranoside to block the mitosis of proliferating cells. The culture medium contained 100 µg/ml streptomycin, 100 U.I./ml penicillin and 10% fetal calf serum. The cultures were incubated in humid atmosphere saturated with 5% CO₂ at 37°C and washed after 24 and 48 hours to remove non-adhering medullary cells.
The bone resorption was evaluated using the so prepared osteoclasts cultures cultured in the presence of rat bone particles, pre-labelled in vivo with trititated proline. During the resorption process, the collagen was degraded into fragments containing tritiated proline which was released in the culture medium; the resorption was calculated by measuring the radioactivity present in the medium after 24 and 48 hours of treatment.
Simultaneously to each experiment, cell-free samples have also been prepared containing only bone fragments labelled in the culture medium to measure the aspecific release of radioactivity from the bone. This value was subtracted as background from the corresponding experimental value.
The compounds under examination were added to the culture medium at the concentrations of 10 and 25 µg/ml dissolved in DMSO. The inhibiting effect on the bone resorption of osteoclast of compound I (R = iPr, R₁ = OiPr), as an example, is reported on Table 1.
The significance was evaluated by the Student's t test versus the group treated with the solvent alone (control).

[2] = Acute toxicity in the rat after oral and intraperitoneal administration; design: species or system Sprague-Dawley rats; details: in vivo, 14 days observation, read-out: LD₅₀
Description: The acute toxicity of the compound I (R = iPr; R₁ = OiPr) was evaluated in the rat after oral and intraperitoneal administration.
Sprague-Dawley rats of both sexes (5M + 5F) were used for each group. […] The compound has an LD₅₀ > 4000 mg/kg (LD₀) after oral administration and an LD₅₀ > 1000 mg/kg (LD₂₀) by intraperitoneal route.

[3] = change versus control group (Methocel 0.5%)
[4] = change versus control group (Methocel 0.5%); R₁ = OiPr)
[5] = femur, sacrificed after 10 days, n = 3, p < 0.05

CC(C)Oc1ccc2c(=O)c3ccc(OC(C)C)cc3oc2c1 [I (R=iPr; R₁=OiPr), 3,6-Di(isopropoxy)xanthone]
Compacta thinkness Diaphysis % [1, 3]: +29%
Compacta thinkness Methaphysis % [1, 3]: +29%
Compacta thinkness Diaphysis % [1, 4]: 29%
Compacta thinkness Methaphysis % [1, 4]: 29%
Compacta thinkness Diaphysis mm ± S.D. [1, 5]: 0.71±0.03 mm
Compacta thinkness Methaphysis mm ± S.D. [1, 5]: 0.40±0.12 mm
Bone Res. (hen osteoclasts; Conc. 10 µg/ml, 24h, n = 4): 32.1 ± 3.6 µg
Bone Res. (hen osteoclasts; Conc. 10 µg/ml, 48h, n = 4): 50.2 ± 6.3 µg
Bone Res. (hen osteoclasts; Conc. 25 µg/ml, 24h, n = 4, p < 0.01): 16.0 ± 1.0 µg
Bone Res. (hen osteoclasts; Conc. 25 µg/ml, 48h, n = 4, p < 0.01): 21.0 ± 1.0 µg
inhibition at 10 µg/mL (hen osteoclasts; Conc. 10 µg/ml, 24h): 27.5%
inhibition at 10 µg/mL (hen osteoclasts; Conc. 10 µg/ml, 48h): 30.9%
inhibition at 25 µg/mL (hen osteoclasts; Conc. 25 µg/ml, 24h): 63.8%
inhibition at 25 µg/mL (hen osteoclasts; Conc. 25 µg/ml, 48h): 71.1%
activity on bone resorption (hen osteoclasts; at the concentrations of 10 and 25 µg/ml): dose dependent activity
bone resorption inhibition in comparison to unexposed controls (hen osteoclasts; both at 24 and at 48 hours, concentration not stated in the sentence (10 and 25 µg/ml tested)): higher than 60%
LD50 at 336 h ([2]; ip, intraperitoneal route, printed with (LD₂₀)): > 1000 mg/kg
LD50 at 336 h ([2]; oral administration, printed with (LD₀)): > 4000 mg/kg
